The values that follow come from patent US11180510B2, “Xanthine derivatives and uses thereof as inhibitors of bromodomains of BET proteins” (Centre national de la recherche scientifique, priority 2017, dated 2021).

For assay [1], the target named is T1, Brd2(BD1) (Homo sapiens, UniProt P25440).
T1 construct: GST tagged bromodomain proteins were purchased from BPS Bioscience; purchased BPS Bioscience
In words: HTRF BET selectivity profile, Brd2(BD1). Type of assay: binding.

The target of assay [2] is T2, Brdt(BD1) (Homo sapiens, UniProt Q58F21).
T2 construct: GST tagged bromodomain proteins were purchased from BPS Bioscience; purchased BPS Bioscience
In words: HTRF BET selectivity profile, Brdt(BD1). Type of assay: binding. In a few lines: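 HTRF peptide-displacement assay with GST-tagged bromodomains and histone peptide, 0.5% final DMSO, incubated 3 h, 6 h or overnight at room temperature or 4 °C depending on bromodomain. 665/620 nm ratio read; inhibition scaled between DMSO and no-peptide controls, IC50 in triplicate.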
(Time-resolved FRET reads energy transfer from a long-lived donor to a nearby acceptor.)

Assay [3] has as its system Jurkat cells. In words: Cell Titer-Glo cell viability assay, Jurkat. Type of assay: cell-based. The note with it: Homo sapiens, 72 h, mean of three experiments, NA = IC50 > maximal concentration used. The method in brief:
(§1)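 Jurkat was grown in RPMI-1640 and Molm14 in MEMα, both with 10% FBS. Viability was read by CellTiter-Glo luminescence, and EC50 was obtained by non-linear regression of dose-response curves.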

In assay [4] the test system is Molm14 cells. As to the kind of experiment: Cell Titer-Glo cell viability assay, Molm14. The class given is cell-based. The note with it: Homo sapiens, MOLM-14, 72 h, mean of three experiments, NA = IC50 > maximal concentration used. The method in brief: as §1
(ATP-based viability assays read luminescence as a measure of living cells.)

Assay [5] has as its target BRD4(BD1) (Homo sapiens, UniProt O60885). As to the kind of experiment: Thermal shift assay (BromoMELT), Brd4 (BD1). The class given is binding. The note with it: compound at 25 μM, cut-off +/−3.5° C. How it is done: (§2) FIG. 3. Thermal Shift Assay (TSA) of 43c. The evaluation was performed on 61 bromodomains. A cut-off at +/−3.5° C. was set.
(§3) TSA “Bromoscan” assays (Reaction Biology) were performed in 384 well RT-PCR plate (BioRad) with a total working volume of 15 μL. The “BromoMelT™, containing the 61 GST- or His-tagged-bromodomains, SYPRO® Orange and a mix compounds as control, was purchased from Reaction Biology. For each point, 3 μL of protein (1×) and 12 μL master mix (buffer+SYPRO® Orange+compound at 25 μM or control mix compounds or DMSO (0.5%)) were mixed in plate. The plate was placed in a CFX384 RTQPC (BioRad), and heated 10 seconds at 25° C., then the temperature was increased from 25° C. to 90° C., by increment of 0.5° C. every 30 seconds. The fluorescence was recorded using FRET filters.

Assay [6] concerns 61 bromodomains. As to the kind of experiment: Thermal shift assay selectivity profile on 61 bromodomains. The note with it: compound at 25 μM, 25 µM. The class given is binding. How it is done:
as §2, §3

The subject of assay [7] is c-Myc. As to the kind of experiment: c-Myc HTRF, Jurkat cell line. The class given is cell-based, human. How it is done: For additional evaluation of the effect of 43c in cell assays, an influence of the molecule on c-Myc expression was determined by c-Myc HTRF. c-Myc is a proto-oncogene that is often overexpressed in cancer. This leads to the increased expression of many genes, involved in cell proliferation, contributing to cancer development. Downregulation of c-Myc is considered as a promising approach for anticancer treatment.

For assay [8], the target named is Brd3(BD1) (Homo sapiens, UniProt Q15059). In words: HTRF BET selectivity profile, Brd3(BD1). More on the design: GST tagged bromodomain proteins were purchased from BPS Bioscience; purchased BPS Bioscience. The class given is binding.

Each structure is given as a SMILES string. Entries after “also recorded” stand apart in the source; their conditions may differ.

T1 sequence (P25440 74-180 limits assumed): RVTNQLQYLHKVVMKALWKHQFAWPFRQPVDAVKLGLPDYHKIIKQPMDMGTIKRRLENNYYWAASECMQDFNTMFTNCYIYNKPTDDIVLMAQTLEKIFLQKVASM
Chain of Brd3(BD1) (Q15059 34-140 limits assumed): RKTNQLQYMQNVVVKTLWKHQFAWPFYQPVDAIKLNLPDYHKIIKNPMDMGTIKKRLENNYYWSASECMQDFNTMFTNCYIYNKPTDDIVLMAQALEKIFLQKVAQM

A word on the IC50: it is the point on the concentration scale where inhibition reaches its midpoint. Broadly, the ΔTm is the shift of the melting midpoint relative to a reference. For `CCn1cnc2c1c(=O)[nH]c(=O)n2Cc1ccc(CNS(=O)(=O)c2ccc(OC3CCOCC3)c(F)c2)cc1` [Compound 43c], the concentration for half-maximal inhibition (IC50) in assay [1] (read-out: Brd2(BD1) IC50) turned out to be 0.183 µM; in assay [2], 0.352 µM; in assay [3], 17.6 µM; in assay [4] it was 6.1 µM; in assay [8], 0.132 µM. Moreover, the “Ratio 2-1 vs 2-2” value in assay [1] (selectivity Brd2(BD1) vs Brd2(BD2), HTRF IC50) was 7. Besides, the ΔTm at 25 µM in assay [5] stood at 5.25 °C. Besides, the “Bromodomain selectivity profile by thermal shift assay” value in assay [6] is “stabilize only BET proteins; also recorded: stabilizes only BRD4 (BD1) and BRD3 (BD1)”. Also, the “concentration at which c-Myc is downregulated, Jurkat” value in assay [7] came out at 2.4 µM. Also, the “Ratio 3-1 vs 3-2” value in assay [8] (selectivity Brd3(BD1) vs Brd3(BD2), HTRF IC50) is recorded as 16.
